The structures appear in SMILES notation.

Here are results for three compounds from ChEMBL document CHEMBL1140019, “Primary amides as selective inhibitors of cathepsin K” (Bioorg Med Chem Lett, 2007).

For assay [1], the species on record is Homo sapiens. In words: Selectivity for humanized cathepsin K over human cathepsin S.
For assay [2], the species on record is Homo sapiens. In words: Selectivity for humanized cathepsin K over human cathepsin L.

For `CC(C)C[C@H](N[C@@H](c1ccc(-c2ccc(S(C)(=O)=O)cc2)cc1)C(F)(F)F)C(=O)NCC(N)=O`, in assay [1], the Ratio IC50 came to 170.

Take `CSCC[C@H](NC(=O)[C@H](CC(C)C)N[C@@H](c1ccc(-c2ccc(S(C)(=O)=O)cc2)cc1)C(F)(F)F)C(N)=O`: the Ratio IC50 in assay [2] turned out to be 4300. Regarding `CC(C)C[C@H](N[C@@H](c1ccc(-c2ccc(S(C)(=O)=O)cc2)cc1)C(F)(F)F)C(=O)N[C@@H](Cc1ccccc1)C(N)=O`, the Ratio IC50 in assay [2] worked out at 1700.
